Data from patent publication US20130203649A1, “INHIBITORS OF TLR SIGNALING BY TARGETING TIR DOMAIN INTERFACES” (UNIVERSITY OF MARYLAND, BALTIMORE, priority 2012, published 2013).
No end group written: not given here.

Experiments:
[1] = tested on: TLR4; assay: Inhibition of TLR4 signaling in thioglycollate-elicited mouse macrophages (effective concentration, overall inhibitory activity); type: cell-based; conditions: TLR4 pathway; thioglycollate-elicited mouse macrophages
Method: (§1) C57BL/6J mice were obtained from The Jackson Laboratory (Bar Harbor, Me.). Primary peritoneal macrophages were obtained by peritoneal lavage 4 days after intraperitoneal injection (3 ml) of sterile 3% thioglycolate broth. Washed cells were resuspended in RPMI 1640 which contained 2% FBS, 1% penicillin:streptomycin and 2 mM L-glutamine. After plating, cells were incubated overnight at 37° C. and then washed with PBS to remove non-adherent cells. Cells were exposed to peptides 30 min before stimulation with a TLR agonist.
TIRAP/Mal functions to facilitate MyD88 recruitment to the activated TLR4 and TLR2, presumably through a simultaneous interaction with receptor and MyD88 TIR domains. Therefore, multiple TIR:TIR interaction sites are expected in TIRAP TIR. The decoy peptide approach was used to obtain leads on the functional protein-protein interfaces within TIRAP/Mal, a TLR adapter protein. To this end, eleven TIRAP TIR-derived decoy peptides were designed to be structurally homologous to the TLR4 TIR-derived decoy peptides used previously (1), so that each peptide represents a non-fragmented patch of the TIRAP TIR surface, with the entire domain encompassed by the set of peptides. The TIRAP TIR-derived decoy peptides were synthesized in tandem with the cell-permeating sequence of Antennapedia homeodomain (21) and each peptide was tested for the ability to inhibit TLR4 and TLR2 signaling in primary mouse macrophages. Peptide sequences and the structural regions they represent are shown in reference (30).
C57BL/6J mice were obtained from The Jackson Laboratory (BarHarbor, Me.). Harvesting, culturing, and stimulation of peritoneal macrophages were described in previous publications (1, 18, 19). Escherichia coli K235 LPS (34) was used at the final concentration of 100 ng/ml. The 2,3-bis(palmitoyloxy)-(2-RS)-propyl-N-palmitoyl-(R)-Cys-Ser-Lys4-OH (P3C) and S[2,3-bis(palmitoyloxy)-(2-RS)-propyl]-[R]-Cys-Ser-Lys4-OH (P2C) (EMC Microcollections, Tubingen, Germany) were used at 500 and 50 ng/ml, respectively. Oligonucleotide (ODN) 1668 and low m.w. polyinosinic-polycytidylic acid [poly(I:C)] in complex with LyoVec were obtained from InvivoGen; these agonists were used at 2.5 μM and 400 ng/ml, respectively.

[2] = tested on: TLR4; assay: LPS-induced MAPK (ERK, JNK, p38) activation in mouse macrophages (Western analysis); type: cell-based
Method: Cellular protein extracts were isolated by addition of 240 μL per well cold lysate buffer (20 mM Tris, 50 mM NaCl, 1.5 mM MgCl2, 2 mM EDTA, 10 mM NaF, 2 Mm DTT, 1 mM Na3VO4, 1% Triton). Cells were incubated with lysis solution for 30 min on agitator at 4° C. Lysate was then collected and centrifuged at 14,000 g for 10 minutes at 4° C. After quantification using BioRad protein assay, protein samples were added to Laemmli buffer and then boiled for 10 min. Samples were then resolved by SDS-10% PAGE in Tris/glycine/SDS buffer (25 mM Tris, 250 mM glycine, 0.1% SDS), and transferred onto Immobilon P transfer membranes (Millipore, Bedford, Mass.) (100 V, 1.5 h, 4° C.). Membranes were blocked for 1 h in TBS-T (20 mM Tris-HCl, 150 mM NaCl, 0.1% Tween 20) containing 5% nonfat milk, then probed for overnight at 4° C. with the respective antibodies (Abs) (dilution 1:1000 in TBS-T with 2% BSA). After washing in TBS-T, membranes were incubated with secondary HRP-conjugated, donkey anti-rabbit IgG (1:10,000 dilution in TBS-T with 5% nonfat milk) for 1 h at room temperature. Membranes washed five times in TBS-T before development with ECL reagents (GE Healthcare) according to manufacturer's directions.
HEK293T cells were transfected with indicated plasmids using Superfect Transfection Reagent (Qiagen). Twenty-four hours posttransfection, the cells were lysed using the buffer containing 20 mM HEPES (pH 7.4), 150 mM NaCl, 10 mM NaF, 2 mM Na3VO4, 1 mM EDTA, 1 mM EGTA, 0.5% Triton X-100, 0.1 M DTT, 1 mM PMSF, and protease inhibitor mixture (Roche, Indianapolis, Ind.). Rabbit Ab against phospho-ERK, phospho-JNK, MyD88 (D80F5), STAT1-Y701, total STAT1, and GAPDH were purchased from Cell Signaling Technology (Beverly, Mass.). Rabbit anti-phospho-p38 Ab was purchased from Promega (Madison, Wis.). Goat anti-TLR4 (M−16), rabbit anti-TLR4 (H-80), anti-HA-HRP (F-7), and rabbit anti-b-actin Ab were purchased from Santa Cruz Biotechnology. Mouse anti-Flag M2 and rabbit anti-HA Ab were from Sigma-Aldrich. GFP Ab (A1122) was from Invitrogen. Protein was quantified using Bio-Rad protein quantification kit. Equal amount of protein was loaded and analyzed by 10% SDS-PAGE and immunoblotting. The cell extracts containing equal amount of protein were incubated with 1 μg Ab for 2 h, followed by 4-h incubation with 25 μl protein G agarose beads (Roche); the beads were then washed four times with lysis buffer, boiled in […] sample loading buffer, and analyzed by immunoblotting.
We next examined whether TRAM peptides inhibit the TLR4-mediated p38, ERK, and JNK MAPK activation. Murine macrophages pretreated with peptides for 30 min were challenged with LPS. Cell lysates were collected 30 min post-stimulation and analyzed for MAPK phosphorylation by Western analysis. Consistent with peptide effects on steady-state mRNA, both TM4 and TM6 inhibited activation of all three MAPKs (FIG. 5C). The inhibition of MAPKs by TM4 or TM6 was long lasting; it persisted for at least 1 h after LPS stimulation (data not shown). To characterize further the effects of TRAM peptides on MAPKs, murine macrophages were treated with TRAM peptides, but not challenged by LPS.

[3] = tested on: TLR4; assay: LPS-induced STAT1-Y701 phosphorylation in macrophages (immunoblotting); type: cell-based, mouse; conditions: 2 h after LPS
[4] = tested on: TLR4; assay: LPS-induced cytokine secretion by mouse macrophages (ELISA/multiplex); type: cell-based; conditions: 5 or 20 μM peptide; LPS 100 ng/ml; supernatants 24 h
Method: Cytokine secretion was measured in supernatant samples collected at 6 or 24 h time points and stored at −80° C. Samples were analyzed by a multiplex assay at the University of Maryland Baltimore Cytokine Core Facility using a Luminex 100 reader and Softmax Pro software, or by ELISA kits for mouse IL-6 or TNF-α from BioLegend (San Diego, Calif.) and LT-4000 microplate reader.
A total of 2×10^6 cells was plated in 12-well plates and treated with peptides for 30 min prior to LPS stimulation. TNF-α, IL-1β, IL-6, and IFN-β were measured using ELISA kits from BioLegend (San Diego, Calif.), as recommended by the manufacturer.

[5] = tested on: TLR4; assay: LPS-induced cytokine mRNA expression in mouse macrophages (real-time RT-PCR); type: cell-based
Method: as §1
Total cellular RNA was isolated using Tripure from Roche (San Francisco, Calif.) following manufacture's protocol. RNA was then reverse transcribed using AMV Reverse Transcriptase from Promega (Madison, Wis.) with poly-T priming as per manufacturer's directions. cDNA was then quantified by real-time PCR using Applied Biosystems Fast SYBR Green PCR Master Mix and an ABI Prism 7500HT cycler. Primers used for detection: hypoxanthine phosphoribosyltransferase (HPRT) (forward: […] (SEQ ID NO:51), reverse: […] (SEQ ID NO:52)), TNFα (forward: […] (SEQ ID NO:53), reverse: […] (SEQ ID NO:54)), IL-1β (forward: […] (SEQ ID NO:55), reverse: […] (SEQ ID NO:56)), IFNβ (forward: […] (SEQ ID NO:57), reverse: CTCGGACCACCATCCAGG (SEQ ID NO:58)) and RANTES (forward: […] (SEQ ID NO:59), reverse: […] (SEQ ID NO:60)). The primers were designed using Primer Express 2.0 (Applied Biosystems). Using HPRT as reference, the ΔCt method was used to calculate relative gene expression. One-way ANOVA was preformed, as well as Dunnett's multiple comparison post hoc test with a p≦0.01 selected as the level of significance.
Total RNA was isolated with Nucleospin RNA II kits (Macherey-Nagel, Bethlehem, Pa.), followed by DNase digestion. cDNA was synthesized from 1 μg RNA using Goscript transcriptase (Promega), and subjected to real-time PCR with gene-specific primers for HPRT, TNF-α, IL-1β, IFNβ, and RANTES on H7900 ABI system using Fast SYBR Green master mix (Applied Biosystems, Foster City, Calif.).
To evaluate peptide-inhibitory activities, we first measured LPS-induced cytokine mRNA expression. […] […] Decoy peptide TM4 is derived from the BB loop of TRAM TIR; we previously identified this peptide as an effective TLR4 inhibitor (19).

[6] = tested on: mouse peritoneal macrophages; conditions: 3-h incubation; data not shown
Method: A total of 5×10^4 mouse peritoneal macrophages was plated into 96-well tissue culture plates, incubated overnight, and treated with peptides for 3 h. After the treatment, cells were incubated with MTT at 0.5 mg/ml (Sigma-Aldrich) for 3 h. Fifty microliters DMSO was added to cells before reading OD at 540 nm.

[7] = tested on: TLR4; conditions: from references (1, 22); cited from earlier work

With RQIKIWFQNRRMKWKKCEEFQVPGRGELH [TF4] the Effective conc. [1] was 20 µM, the “LPS-induced p38, ERK, and JNK MAPK activation” value ([2]; lysates 30 min after LPS) was “inhibit” and the “LPS-induced STAT1-Y701 phosphorylation” value [3] was “inhibit”. The LPS-induced cytokine secretion [4] was “inhibit” and the “LPS-induced (TLR4-mediated) cytokine mRNA expression” value ([5]; 5 or 20 μM peptide 30 min before LPS, 1 or 5 h) was “inhibit”.

With RQIKIWFQNRRMKWKKENFLRDTWCNFQFY [TM6] the “Cell viability (MTT)” value [6] was “Neither inhibitory peptide affected cell viability in a significant way”.

For RQIKIWFQNRRMKWKKIVFAEMPCGRLHLQ [TM4], the “Cell viability (MTT)” value [6] was “Neither inhibitory peptide affected cell viability in a significant way”.

In the case of “RQIKIWFQNRRMKWKKLHYRDFIPGVAIAA [4R4/4BB]”, the Effective conc. [1] is listed as 20 µM, the “LPS-induced activation of ERK and JNK MAPKs” value ([2]; peritoneal macrophages (FIG. 14B)) is listed as “potently inhibit” and the “Inhibition of TLR4 (overall)” value [7] is listed as “quite potent inhibitor”. For the same sequence, the “LPS-induced cytokine mRNA induction” value ([5]; peritoneal macrophages (FIG. 14A)) was “potently inhibit”.
